Reference: ChEMBL document CHEMBL4402510, “Caprazamycins: Promising lead structures acting on a novel antibacterial target MraY” (Eur J Med Chem, 2019)
Values after ≈ are worked out from the molar mass of the structure shown.

What was measured:
[1] = biological target: T1, Phospho-N-acetylmuramoyl-pentapeptide-transferase (Bacillus subtilis (strain 168), UniProt Q03521); assay: Inhibition of MraY in Bacillus subtilis
T1 sequence (Q03521 whole entry): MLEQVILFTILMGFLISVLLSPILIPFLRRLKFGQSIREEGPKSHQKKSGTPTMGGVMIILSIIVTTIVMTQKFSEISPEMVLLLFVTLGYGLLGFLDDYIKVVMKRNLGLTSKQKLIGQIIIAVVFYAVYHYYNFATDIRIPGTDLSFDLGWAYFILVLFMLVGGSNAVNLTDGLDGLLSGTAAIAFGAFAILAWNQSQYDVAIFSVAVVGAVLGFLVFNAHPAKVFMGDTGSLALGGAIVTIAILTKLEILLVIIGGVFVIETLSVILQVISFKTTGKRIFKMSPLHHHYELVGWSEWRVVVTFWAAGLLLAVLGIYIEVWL

[2] = biological target: T2, Phospho-N-acetylmuramoyl-pentapeptide-transferase (Aquifex aeolicus (strain VF5), UniProt O66465); assay: Inhibition of MraY in Aquifex aeolicus
T2 sequence (O66465 whole entry): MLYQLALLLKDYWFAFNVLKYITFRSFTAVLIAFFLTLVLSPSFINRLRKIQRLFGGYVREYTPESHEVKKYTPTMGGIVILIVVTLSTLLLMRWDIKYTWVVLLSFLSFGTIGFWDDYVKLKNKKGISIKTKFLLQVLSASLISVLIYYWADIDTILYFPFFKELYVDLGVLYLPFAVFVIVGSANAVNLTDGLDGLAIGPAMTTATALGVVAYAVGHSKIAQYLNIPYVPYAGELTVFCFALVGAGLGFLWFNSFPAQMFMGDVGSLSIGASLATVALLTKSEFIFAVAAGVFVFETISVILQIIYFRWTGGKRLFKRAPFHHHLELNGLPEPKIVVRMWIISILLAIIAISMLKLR

[3] = system: Mycobacterium tuberculosis; assay: Antibacterial activity against Mycobacterium tuberculosis Kurono; format: functional
Mycolicibacterium vaccae = assay: Antibacterial activity against Mycobacterium vaccae ATCC 15483; format: functional
Staphylococcus aureus [4] = assay: Antibacterial activity against Staphylococcus aureus FDA 209P; format: functional
Streptococcus pneumoniae = assay: Antibacterial activity against Streptococcus pneumoniae PCI 602; format: functional
[5] = system: Mycobacterium tuberculosis; assay: Antibacterial activity against Mycobacterium tuberculosis JCM 6384; format: functional
[6] = system: Mycobacterium avium subsp. paratuberculosis; assay: Antibacterial activity against Mycobacterium avium subsp. paratuberculosis ATCC 43015; format: functional
[7] = system: Mycolicibacterium smegmatis; assay: Antibacterial activity against Mycobacterium smegmatis ATCC 607; format: functional
Staphylococcus aureus [8] = assay: Antibacterial activity against methicillin resistant Staphylococcus aureus No. 5; format: functional
[9] = system: Mycobacterium tuberculosis; assay: Antibacterial activity against Mycobacterium tuberculosis H37Rv; format: functional
[10] = Antibacterial activity against Mycobacterium avium subsp. avium ATCC 25291; format: functional
Mycolicibacterium phlei = assay: Antibacterial activity against Mycobacterium phlei; format: functional
Staphylococcus aureus [11] = assay: Antibacterial activity against methicillin resistant Staphylococcus aureus SR3637; format: functional
Enterococcus faecalis [12] = assay: Antibacterial activity against Enterococcus faecalis SR7914 (VRE); format: functional
Enterococcus faecalis [13] = assay: Antibacterial activity against Enterococcus faecalis ATCC 29212; format: functional
Enterococcus faecium = assay: Antibacterial activity against Enterococcus faecium SR7917 (VRE); format: functional
Staphylococcus aureus [14] = assay: Antibacterial activity against methicillin susceptible Staphylococcus aureus ATCC 29213; format: functional
Escherichia coli [15] = assay: Antibacterial activity against Escherichia coli K-12; format: functional
Bacillus subtilis = assay: Antibacterial activity against Bacillus subtilis PCI 219; format: functional
Staphylococcus aureus [16] = assay: Antibacterial activity against methicillin resistant Staphylococcus aureus MS16526; format: functional
Escherichia coli [17] = assay: Antibacterial activity against Escherichia coli expressing MraY; format: functional, organism-based

## NC[C@H]1O[C@@H](O[C@@H](c2cn(C3CCCCCC3)nn2)[C@H]2O[C@@H](n3ccc(=O)[nH]c3=O)[C@H](O)[C@@H]2O)[C@H](O)[C@@H]1O
[1]
  IC50: > 1000 µM

## NC[C@H]1O[C@@H](O[C@@H](Cn2cc(CCCCCCCCCCO)nn2)[C@H]2O[C@@H](n3ccc(=O)[nH]c3=O)[C@H](O)[C@@H]2O)[C@H](O)[C@@H]1O
[2]
  IC50: 75 µM

## C#C[C@H](O[C@@H]1O[C@H](CN)[C@@H](O)[C@H]1O)[C@H]1O[C@@H](n2ccc(=O)[nH]c2=O)[C@H](O)[C@@H]1O
[1]
  IC50: 100 µM

## NCCCCCCCCCc1cn(C[C@H](O[C@@H]2O[C@H](CN)[C@@H](O)[C@H]2O)[C@H]2O[C@@H](n3ccc(=O)[nH]c3=O)[C@H](O)[C@@H]2O)nn1
[2]
  IC50: 250 µM

## NC[C@H]1O[C@@H](O[C@@H](Cn2cc(CCOCCOCCOCCOCCO)nn2)[C@H]2O[C@@H](n3ccc(=O)[nH]c3=O)[C@H](O)[C@@H]2O)[C@H](O)[C@@H]1O
[2]
  IC50: 450 µM

## CCCCCCCCCCCCCCCCNC(=O)C1=CCN(C)[C@@H]([C@H](O[C@@H]2O[C@H](CN)[C@@H](O)[C@H]2O)[C@H]2O[C@@H](n3ccc(=O)[nH]c3=O)[C@H](O)[C@@H]2O)C(=O)N1C
[3]
  MIC: 3.13 mg/L (≈ 4.01 µM)
Mycolicibacterium vaccae
  MIC: > 100 mg/L
Staphylococcus aureus [4]
  MIC: 0.78 mg/L (≈ 0.999 µM)
Streptococcus pneumoniae
  MIC: 1.56 mg/L (≈ 2 µM)
[5]
  MIC: 3.13 mg/L (≈ 4.01 µM)
[6]
  MIC: 6.25 mg/L (≈ 8 µM)
[7]
  MIC: 0.78 mg/L (≈ 0.999 µM)
Staphylococcus aureus [8]
  MIC: 1.56 mg/L (≈ 2 µM)
[9]
  MIC: 3.13 mg/L (≈ 4.01 µM)
[10]
  MIC: 3.13 mg/L (≈ 4.01 µM)
Mycolicibacterium phlei
  MIC: > 100 mg/L

## NC[C@H]1O[C@@H](O[C@@H](Cn2cc(Cc3ccc(COc4ccc(C(=O)c5ccccc5)cc4)cc3)nn2)[C@H]2O[C@@H](n3ccc(=O)[nH]c3=O)[C@H](O)[C@@H]2O)[C@H](O)[C@@H]1O
[2]
  IC50: 100 µM

## NC[C@H]1O[C@@H](O[C@@H](c2cn(CCCCCOc3ccc(C(=O)c4ccccc4)cc3)nn2)[C@H]2O[C@@H](n3ccc(=O)[nH]c3=O)[C@H](O)[C@@H]2O)[C@H](O)[C@@H]1O
[1]
  IC50: 100 µM

## CCCCCCCCCCCCCCC[C@H](NC(=O)[C@@H](N)CCCNC(=N)N)C(=O)NC[C@@H]1CC2[C@@H](C(=O)N1)[C@H]([C@H]1O[C@@H](n3ccc(=O)[nH]c3=O)[C@H](O)[C@@H]1O)ON2CCCN (single isomer, unassigned)
Staphylococcus aureus [11]
  MIC: 32 mg/L (≈ 37 µM)
Enterococcus faecalis [12]
  MIC: 32 mg/L (≈ 37 µM)
Enterococcus faecalis [13]
  MIC: 16 mg/L (≈ 18.5 µM)
Enterococcus faecium
  MIC: 16 mg/L (≈ 18.5 µM)
Staphylococcus aureus [14]
  MIC: > 64 mg/L

## NC[C@H]1O[C@@H](O[C@@H](c2cn(CCCCCN3CCCCC3)nn2)[C@H]2O[C@@H](n3ccc(=O)[nH]c3=O)[C@H](O)[C@@H]2O)[C@H](O)[C@@H]1O
[1]
  IC50: 150 µM

## CCCCCCCCCCCCNC(=O)C1=CCN(C)[C@@H]([C@H](O[C@@H]2O[C@H](CN)[C@@H](O)[C@H]2O)[C@H]2O[C@@H](n3ccc(=O)[nH]c3=O)[C@H](O)[C@@H]2O)C(=O)N1C
[3]
  MIC: 1.56 mg/L (≈ 2.15 µM)
Escherichia coli [15]
  MIC: 100 mg/L (≈ 138 µM)
Mycolicibacterium vaccae
  MIC: 1.56 mg/L (≈ 2.15 µM)
Staphylococcus aureus [4]
  MIC: 3.13 mg/L (≈ 4.32 µM)
Streptococcus pneumoniae
  MIC: 6.25 mg/L (≈ 8.62 µM)
[5]
  MIC: 0.2 mg/L (≈ 0.276 µM)
[7]
  MIC: 0.39 mg/L (≈ 0.538 µM)
Staphylococcus aureus [8]
  MIC: 12.5 mg/L (≈ 17.2 µM)
[9]
  MIC: 1.56 mg/L (≈ 2.15 µM)
[10]
  MIC: 3.13 mg/L (≈ 4.32 µM)
Mycolicibacterium phlei
  MIC: 0.39 mg/L (≈ 0.538 µM)
Bacillus subtilis
  MIC: 0.78 mg/L (≈ 1.08 µM)
Staphylococcus aureus [16]
  MIC: 6.25 mg/L (≈ 8.62 µM)

## NC[C@H]1O[C@@H](O[C@@H](c2cn(CCCc3ccccc3)nn2)[C@H]2O[C@@H](n3ccc(=O)[nH]c3=O)[C@H](O)[C@@H]2O)[C@H](O)[C@@H]1O
[1]
  IC50: 250 µM

## CCCCCCCCCCCCCCCC(=O)NC[C@@H]1CC[C@H]2C(C(=O)N1CCCNC(=N)N)[C@H]([C@H]1O[C@@H](n3ccc(=O)[nH]c3=O)[C@H](O)[C@@H]1O)ON2CCCN (single isomer, unassigned)
Staphylococcus aureus [11]
  MIC: 16 mg/L (≈ 20.2 µM)
Enterococcus faecalis [12]
  MIC: 16 mg/L (≈ 20.2 µM)
Enterococcus faecalis [13]
  MIC: 16 mg/L (≈ 20.2 µM)
Enterococcus faecium
  MIC: 16 mg/L (≈ 20.2 µM)
Staphylococcus aureus [14]
  MIC: > 64 mg/L

## NC[C@H]1O[C@@H](O[C@@H](Cn2cc(CCCCCO)nn2)[C@H]2O[C@@H](n3ccc(=O)[nH]c3=O)[C@H](O)[C@@H]2O)[C@H](O)[C@@H]1O
[2]
  IC50: 400 µM

## CCCCCCCCCCCCCCCC(=O)NC[C@@H]1CC2[C@H](C(=O)N1CCCNC(=N)N)[C@@H]([C@H]1O[C@@H](n3ccc(=O)[nH]c3=O)[C@H](O)[C@@H]1O)ON2CCCN (single isomer, unassigned)
Staphylococcus aureus [11]
  MIC: 16 mg/L (≈ 20.6 µM)
Enterococcus faecalis [12]
  MIC: 16 mg/L (≈ 20.6 µM)
Enterococcus faecalis [13]
  MIC: 16 mg/L (≈ 20.6 µM)
Enterococcus faecium
  MIC: 8 mg/L (≈ 10.3 µM)
Staphylococcus aureus [14]
  MIC: 16 mg/L (≈ 20.6 µM)

## CNC[C@H]1O[C@@H](OC[C@H]2O[C@@H](n3ccc(=O)[nH]c3=O)[C@H](O)[C@@H]2O)[C@H](O)[C@@H]1O
Escherichia coli [17]
  IC50: 45 µM

## NC[C@H]1O[C@@H](OC[C@H]2O[C@@H](n3ccc(=O)[nH]c3=O)[C@H](O)[C@@H]2O)C[C@@H]1O
Escherichia coli [17]
  IC50: 115 µM
